Experimental data as given in patent publication US20140377340A1, “HLA-DR BINDING PEPTIDES AND THEIR USES” (priority 2007, published 2014).
Ends that are not written are not given here.

How the values were obtained:
[1] = target: T1, purified HLA DRB1*0101 (Homo sapiens, UniProt P01903+P01911, A100R/D57E/F55L/F60I/F76Y/I96L/L162R/M171V/P40L/Q125E/R42F/V115G/Y59C); test: HLA-DR radioligand binding inhibition assay, DRB1*0101; conditions: IC50 nM purified HLA DRB1 *0101, purified HLA DRB1*0101
T1 construct: purified from EBV transformed homozygous cell lines or single MHC allele transfected 721.221, C1R, or fibroblast lines; made in house
Method: (§1) Instead, wells of an opaque white 96-well Optiplate (Packard) are coated with 3 μg (100 μl@ 30 μg/ml) of HLA-specific antibody (Ab) that “capture” complexes of radiolabeled MHC and unlabeled peptide transferred from the molecular binding assay plate in 100 μl of 0.05% NP40/PBS. After a 3-hour incubation period, the supernatant is decanted and scintillation fluid (Microscint 20) added. Captured complexes are then measured on a microplate scintillation and luminescence counter (TopCount NXTTM; Packard).
(§2) HLA-DR purification. Fifteen distinct HLA-DR molecules were used in quantitative assays to measure the binding of peptides to solubilized HLA-DR molecules. […] Briefly, columns of inactivated Sepharose CL4B and Protein A Sepharose were used as pre-columns. HLA-DR molecules were captured by passage of lysates over LB3.1 monoclonal antibody (anti-HLA-DRA) columns. Antibody columns were washed with 10 mM Tris-HCL, pH8.0 with 1% (v/v) NP-40, followed by PBS containing 0.4% (w/v) n-octylglucoside.
(§3) Briefly, 1-10 nM of radiolabeled peptide was co-incubated for 2 days at either room temperature or 37° C. with 1 μM to 1 nM purified HLA-DR molecules in the presence of a cocktail of protease inhibitors. Assays were performed at various pH conditions, ranging from pH 4 to pH 7. […] After incubation, the percentage of HLA-DR-bound radioactivity is determined by capturing HLA-DR/peptide complexes on Optiplates (Packard Instruments, Meriden, Conn.) coated with the LB3.1 antibody and determining bound counts per minute using the TopCount microscintillation counter (Packard Instruments).

[2] = target: T2, purified HLA DRB1*0405 (Homo sapiens, UniProt P01903+P01911, A100R/A169T/D86S/F76Y/I96L/K127E/L162R/M171V/N62H/P40V/Q125Y/R42H/S133A/S149N/S66Y/V115G/V209L/W38E); test: HLA-DR radioligand binding inhibition assay, DRB1*0405; conditions: IC50 nM purified HLA DRB1 *0405, purified HLA DRB1*0405
T2 construct: purified from EBV transformed homozygous cell lines or single MHC allele transfected 721.221, C1R, or fibroblast lines; made in house
Method: as §1, §2, §3

[3] = target: T3, purified HLA DRB5*0101 (Homo sapiens, UniProt P01903+Q30154); test: HLA-DR radioligand binding inhibition assay, DRB5*0101; conditions: IC50 nM purified HLA DRB5 *0101, purified HLA DRB5*0101
T3 construct: purified from EBV transformed homozygous cell lines or single MHC allele transfected 721.221, C1R, or fibroblast lines; made in house
Method: as §1, §2, §3

[4] = target: T4, purified HLA DRB1*0401 (Homo sapiens, UniProt P01903+P01911, A100K/A169T/F76Y/I96L/K127E/L162R/M171V/N62H/P40V/Q125Y/R42H/S133A/S149N/S66Y/V115G/V209L/W38E); test: HLA-DR radioligand binding inhibition assay, DRB1*0401; conditions: IC50 nM purified HLA DRB1 *0401, purified HLA DRB1*0401
T4 construct: purified from EBV transformed homozygous cell lines or single MHC allele transfected 721.221, C1R, or fibroblast lines; made in house
Method: as §1, §2, §3

[5] = target: T5, purified HLA DRB1*1101 (Homo sapiens, UniProt P01903+P01911, A100R/A169T/A87E/I96F/K41T/L162R/M171V/P40S/Q125H/Q178H/Q39Y/Q99D/R42S/S66Y/T262R/V115G/W38E); test: HLA-DR radioligand binding inhibition assay, DRB1*1101; conditions: IC50 nM purified HLA DRB1 *1101, purified HLA DRB1*1101
T5 construct: purified from EBV transformed homozygous cell lines or single MHC allele transfected 721.221, C1R, or fibroblast lines; made in house
Method: as §1, §2, §3

[6] = target: T6, purified HLA DRB1*1302 (Homo sapiens, UniProt P01903+P01911, A100E/A169T/K41T/L162R/M171V/P40S/Q125H/Q178H/Q39Y/Q99D/R42S/S66N/T262R/V115G/W38E/Y61H); test: HLA-DR radioligand binding inhibition assay, DRB1*1302
T6 construct: purified from EBV transformed homozygous cell lines or single MHC allele transfected 721.221, C1R, or fibroblast lines; made in house
Method: as §1, §2, §3

[7] = target: T7, purified HLA DRB1*0701 (Homo sapiens, UniProt P01903+P01911, A100R/A102G/A103Q/D57E/D86V/E43K/F76Y/K127E/L162R/M171V/P40G/Q125H/Q99D/R33Q/R42Y/R54Q/S133A/S66F/T210M/V115G/Y107V/Y59L/Y89S); test: HLA-DR radioligand binding inhibition assay, DRB1*0701; conditions: IC50 nM purified HLA DRB1 *0701, purified HLA DRB1*0701
T7 construct: purified from EBV transformed homozygous cell lines or single MHC allele transfected 721.221, C1R, or fibroblast lines; made in house
Method: as §1, §2, §3

T5 sequence (P01903 26-254, other chains not shown): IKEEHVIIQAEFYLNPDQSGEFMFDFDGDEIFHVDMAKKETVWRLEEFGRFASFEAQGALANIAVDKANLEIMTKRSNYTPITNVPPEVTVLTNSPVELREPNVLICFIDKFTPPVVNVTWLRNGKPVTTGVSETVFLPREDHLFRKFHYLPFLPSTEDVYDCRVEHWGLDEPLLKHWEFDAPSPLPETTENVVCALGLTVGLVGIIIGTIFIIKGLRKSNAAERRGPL

| Compound | IC50 [1] | IC50 [2] | IC50 [3] | IC50 [4] | IC50 [5] | IC50 [6] | IC50 [7] |
| --- | --- | --- | --- | --- | --- | --- | --- |
| CC(C)C[C@H](NC(=O)[C@H](C)NC(=O)[C@H](CC(C)C)NC(=O)[C@@H](N)CC(C)C)C(=O)N[C@@H](CC(C)C)C(=O)N1CCC[C@H]1C(=O)N1CCC[C@H]1C(=O)NCC(=O)N[C@@H](C)C(=O)N[C@@H](C)C(=O)N[C@@H](CO)C(=O)N[C@H](C(=O)N[C@@H](CCC(N)=O)C(=O)N[C@H](C(=O)N[C@@H](CS)C(=O)O)C(C)C)[C@@H](C)O [Peptide 1622.02] | 17 nM | > 20000 nM | 17 nM |  |  |  |  |
| CC[C@H](C)[C@H](NC(=O)[C@H](CC(C)C)NC(=O)[C@H](C)NC(=O)[C@H](CC(C)C)NC(=O)CN)C(=O)N[C@@H](Cc1c[nH]cn1)C(=O)N[C@@H](Cc1c[nH]cn1)C(=O)N[C@@H](CC(N)=O)C(=O)N[C@H](C(=O)N[C@@H](Cc1c[nH]cn1)C(=O)N[C@@H](CC(C)C)C(=O)N[C@@H](CS)C(=O)N[C@@H](Cc1ccccc1)C(=O)N[C@H](C(=O)N[C@@H](Cc1c[nH]cn1)C(=O)O)C(C)C)[C@@H](C)O [Peptide 9019.0058] |  |  |  | 414 nM | 2800 nM | 18 nM |  |
| CC[C@H](C)[C@H](NC(=O)[C@H](CCCCN)NC(=O)[C@H](CCC(N)=O)NC(=O)[C@@H](N)CCC(N)=O)C(=O)N[C@@H](CCCNC(=N)N)C(=O)N[C@@H](CCCCN)C(=O)N[C@@H](Cc1ccc(O)cc1)C(=O)N[C@H](C(=O)N[C@@H](CCSC)C(=O)N[C@@H](CCCNC(=N)N)C(=O)N[C@@H](CCCNC(=N)N)C(=O)N[C@@H](CC(C)C)C(=O)N[C@@H](CC(C)C)C(=O)N[C@@H](CCC(N)=O)C(=O)N[C@@H](CCC(=O)O)C(=O)O)[C@@H](C)O [Peptide 9019.0070] |  |  | 340 nM |  |  |  |  |
| CC[C@H](C)[C@H](NC(=O)[C@H](CCCNC(=N)N)NC(=O)[C@@H](N)CCSC)C(=O)N[C@@H](CC(C)C)C(=O)N[C@@H](CCCCN)C(=O)N[C@@H](CCC(=O)O)C(=O)N[C@H](C(=O)N[C@@H](CCC(=O)O)C(=O)N[C@@H](CC(C)C)C(=O)N[C@@H](CCCNC(=N)N)C(=O)N[C@@H](CCCCN)C(=O)N[C@H](C(=O)N[C@@H](CCCCN)C(=O)N[C@H](C(=O)N[C@@H](CC(C)C)C(=O)O)C(C)C)C(C)C)[C@@H](C)O [Peptide 9019.0072] |  |  |  |  | 2130 nM |  |  |
| CSCC[C@H](NC(=O)[C@H](CC(C)C)NC(=O)[C@H](CCC(N)=O)NC(=O)[C@@H](NC(=O)[C@@H](NC(=O)[C@H](CC(C)C)NC(=O)[C@H](CCC(N)=O)NC(=O)[C@@H](NC(=O)[C@@H](N)[C@@H](C)O)C(C)C)C(C)C)[C@@H](C)O)C(=O)N1CCC[C@H]1C(=O)N[C@@H](Cc1ccc(O)cc1)C(=O)NCC(=O)N[C@@H](CS)C(=O)N[C@@H](CC(C)C)C(=O)N[C@@H](CC(C)C)C(=O)O [Peptide 9019.0080] |  |  | 3000 nM |  |  |  |  |
| CC[C@H](C)[C@H](NC(=O)[C@H](CCC(N)=O)NC(=O)[C@H](CCSC)NC(=O)[C@H](CS)NC(=O)[C@H](Cc1c[nH]c2ccccc12)NC(=O)[C@H](CC(N)=O)NC(=O)[C@H](CC(C)C)NC(=O)[C@@H](N)CC(C)C)C(=O)N[C@@H](C)C(=O)N[C@@H](CCCCN)C(=O)NCC(=O)N[C@@H](CCSC)C(=O)N[C@@H](CO)C(=O)N[C@@H](Cc1ccc(O)cc1)C(=O)N[C@@H](CC(C)C)C(=O)O [Peptide 9019.0082] |  |  | 92 nM |  |  |  | 380 nM |
| CSCC[C@H](NC(=O)CNC(=O)[C@H](CC(C)C)NC(=O)[C@H](CC(=O)O)NC(=O)CNC(=O)[C@@H](N)CC(=O)O)C(=O)NCC(=O)N[C@@H](C)C(=O)N[C@@H](C)C(=O)N[C@@H](CCCCN)C(=O)NCC(=O)N[C@@H](CC(C)C)C(=O)N[C@@H](CCC(N)=O)C(=O)N[C@@H](CO)C(=O)N[C@@H](CC(C)C)C(=O)O [Peptide 9019.0097] | 110 nM | 5800 nM |  |  |  | 3230 nM |  |
| CC[C@H](C)[C@H](NC(=O)[C@@H](NC(=O)[C@@H]1CCCN1C(=O)[C@H](C)N)[C@@H](C)O)C(=O)N[C@@H](CO)C(=O)N1CCC[C@H]1C(=O)N[C@@H](CC(C)C)C(=O)N[C@@H](CC(N)=O)C(=O)N[C@H](C(=O)N[C@@H](CO)C(=O)N[C@@H](Cc1ccc(O)cc1)C(=O)N[C@@H](CCCNC(=N)N)C(=O)N[C@@H](CO)C(=O)NCC(=O)N[C@@H](CCC(=O)O)C(=O)O)[C@@H](C)O [Peptide 9019.0121] | 2430 nM | 5990 nM |  | 295 nM |  | 125 nM |  |
| CSCC[C@H](NC(=O)[C@H](C)NC(=O)[C@H](CCCNC(=N)N)NC(=O)[C@H](CC(C)C)NC(=O)[C@@H](NC(=O)[C@H](CCCNC(=N)N)NC(=O)[C@H](CC(=O)O)NC(=O)[C@H](CC(N)=O)NC(=O)[C@H](CC(C)C)NC(=O)[C@H](CC(C)C)NC(=O)[C@H](CC(N)=O)NC(=O)[C@H](C)NC(=O)[C@@H](N)CC(=O)O)C(C)C)C(=O)N[C@@H](CC(C)C)C(=O)N[C@@H](CCCCN)C(=O)O [Peptide 9019.0146] | 1460 nM |  |  |  |  | 286 nM | > 20000 nM |
| CC[C@H](C)[C@H](NC(=O)[C@@H](NC(=O)[C@H](CCC(=O)O)NC(=O)[C@H](CCCCN)NC(=O)[C@H](CCSC)NC(=O)[C@H](CCCCN)NC(=O)[C@H](CO)NC(=O)[C@H](C)NC(=O)[C@@H](NC(=O)[C@H](Cc1ccccc1)NC(=O)[C@H](CCSC)NC(=O)[C@H](CS)NC(=O)[C@@H](N)[C@@H](C)O)C(C)C)[C@@H](C)O)C(=O)N1CCC[C@H]1C(=O)N[C@@H](CC(C)C)C(=O)O [Peptide 9019.0157] |  |  | 36 nM |  | 61 nM |  | 17 nM |
| CC[C@H](C)[C@H](NC(=O)[C@@H](NC(=O)[C@H](CCC(=O)O)NC(=O)[C@H](CCCCN)NC(=O)[C@H](CCSC)NC(=O)[C@H](CCCCN)NC(=O)[C@H](CO)NC(=O)[C@H](C)N)[C@@H](C)O)C(=O)N1CCC[C@H]1C(=O)N[C@@H](CC(C)C)C(=O)N[C@H](C(=O)N[C@@H](C)C(=O)N[C@@H](CCC(=O)O)C(=O)N[C@@H](CCCCN)C(=O)N[C@@H](CC(C)C)C(=O)O)[C@@H](C)O [Peptide 9019.0158] | 130 nM | > 20000 nM |  | > 20000 nM |  | 550 nM | 220 nM |
| CC(C)C[C@H](NC(=O)CNC(=O)[C@H](CC(C)C)NC(=O)[C@H](Cc1c[nH]cn1)NC(=O)[C@H](Cc1c[nH]cn1)NC(=O)[C@H](CCCCN)NC(=O)CN)C(=O)N[C@@H](CCC(=O)O)C(=O)N[C@@H](CCC(=O)O)C(=O)N1CCC[C@H]1C(=O)N[C@@H](CCCCN)C(=O)N[C@@H](CCCCN)C(=O)N[C@@H](CC(C)C)C(=O)N[C@@H](CCCNC(=N)N)C(=O)N1CCC[C@H]1C(=O)O [Peptide 9019.0187] |  | 6480 nM |  |  | 16800 nM |  | 3100 nM |
| ELPLQALVMGEGTCE [Peptide 9019.0182] | 1500 nM |  |  | 6780 nM |  | 9170 nM | 15600 nM |
| LPRVGCPALPLPPPP [Peptide 9019.0173] | 1910 nM |  |  | 6540 nM |  | 8940 nM | > 20000 nM |
| PDSLPDLSVFQNLQV [Peptide 9019.0051] | > 20000 nM |  |  | > 20000 nM |  | > 20000 nM | > 20000 nM |
